Several values for one entry are separate records, joined by “and”; a condition that tells them apart may be missing. Identical values can stand only once. Like-named read-outs stand apart in the source and are kept apart here.
Legend:
[1] = system: NMDAR in primary rat hippocampal neurons; format: cell-based, rat (Sprague-Dawley)
[2] = system: GluN2A subunit; settings: ref [41], cited from earlier work

| Structure (SMILES) | inhibition of iCa^2+ influx [1] | NMDAR subunit specificity ([2]; 60 nM) | NMDAR subunit specificity ([2]; 400 nM) |
| --- | --- | --- | --- |
| C[C@H](NC(c1cccc2[nH]c(=O)c(=O)[nH]c12)P(=O)(O)O)c1ccc(Br)cc1 (stereo partly shown) [NVP-AAM007] | 46% and 64% | specifically inhibits the GluN2A subunit | non-subunit specific |
| CC(C(O)c1ccc(O)cc1)N1CCC(Cc2ccccc2)CC1 (stereo not shown) [ifenprodil] | 64% |  |  |

— paper PMC3832412 (PLoS ONE, 2013)
